Source: patent US8974737B2, “Space Disinfection” (Saban Ventures PTY Limited, priority 2005, dated 2015)
Where two headings read alike, the source gives them in different places.

Legend:
[1] = system: Pseudomonas aeruginosa; details: 8 cubic meters
Description: (§1) The components of the device included a nebuliser array, (6×2 cm diameter transducers in a circular array), a heater element, a first and second fan and a dehumidifier system. The dehumidifier used had been a small air conditioning unit positioned appropriately within the space. The purpose of the first fan was to propel nanoparticles from the heater into the space and the purpose of the second fan was to ensure an equal distribution of the aerosol to all surfaces within the space.
(§2) Tests were conducted in an 8 cubic meter volume of cubic shape.
(§3) Samples were coated with an inoculum at levels of approximately log 6 and air dried for 2 hours on the plastic petri dish (Techno-Plas, Australia) in a laminar flow cabinet. The samples were placed in various positions in the room including on the walls, floor and ceiling.
(§4) Unless otherwise stated, the operating conditions were: • Solution: 35% peroxide • Temp: 25 degrees • RH: fluctuated 45% to ˜65%. Sometimes 75% • Nebulizer array 2.4 MHz • Peroxide vapour: 300-500 ppm • Air flow post heater: 400-600 cubic meters per hour. • Heater Temp: 80-90 degrees • Peroxide delivery: Optimally approximately 0.75 gram per cubic meter per minute, ie […] for the 8 cubic meter room.
The dishes and lids are specifically designed to allow gas exchange with an incubator environment while keeping the dish free from external microbial contamination.

[2] = system: Aspergillus niger; details: 8 cubic meters
Description: as §1, §2, §3, §4

[3] = system: Aspergillus niger; details: 69 cubic meters, peroxide vapour 500 ppm, contact time 30 min
Procedure: as §3, §4

[4] = system: Bacillus stearothermophillus; details: at 550 ppm; on both the walls and floor
Procedure: as §3, §4

[5] = closed carriers, peroxide vapour 300 ppm, contact time 20 min
[6] = open carriers, peroxide vapour 50 ppm, contact time 5 min
[7] = open carriers, peroxide vapour 50 ppm, contact time 10 min
[8] = open carriers, peroxide vapour 50 ppm, contact time […]
[9] = open carriers, peroxide vapour 200 ppm, contact time 5 min
[10] = open carriers, peroxide vapour 200 ppm, contact time 10 min
[11] = open carriers, peroxide vapour 200 ppm, contact time 20 min
[12] = open carriers, peroxide vapour 200 ppm, contact time […]
[13] = open carriers, peroxide vapour 350 ppm, contact time 5 min
[14] = open carriers, peroxide vapour 350 ppm, contact time 10 min
[15] = open carriers, peroxide vapour 350 ppm, contact time 20 min
[16] = open carriers, peroxide vapour 350 ppm, contact time […]
[17] = peroxide vapour 250 ppm, contact time 5 min
[18] = peroxide vapour 250 ppm, contact time 10 min
[19] = peroxide vapour 250 ppm, contact time 20 min
[20] = peroxide vapour 250 ppm, contact time 30 min
[21] = peroxide vapour 500 ppm, contact time 5 min
[22] = peroxide vapour 500 ppm, contact time 10 min
[23] = peroxide vapour 500 ppm, contact time 20 min
[24] = peroxide vapour 500 ppm, contact time 30 min
[25] = Table 4, peroxide vapour 350 ppm, contact time 15 min
[26] = Table 4, peroxide vapour 550 ppm, contact time 15 min
[27] = Table 4, peroxide vapour 550 ppm, contact time 20 min
[28] = Table 4, peroxide vapour 550 ppm, contact time 30 min

## OO [Peroxide, hydrogen peroxide]
[1]; closed carriers, peroxide vapour 300 ppm, contact time 5 min
  Wall (log reduction): 6.7 log reduction
[1]; closed carriers, peroxide vapour 300 ppm, contact time 10 min
  Wall (log reduction): 6.3 log reduction
[1]; [5]
  Floor (log reduction): 5.8 log reduction
  Wall (log reduction): 6.7 log reduction
[1]; [6]
  Floor (log reduction): TNTC
  Wall (log reduction): 3.6 log reduction
[1]; [7]
  Floor (log reduction): TNTC
  Wall (log reduction): 4.3 log reduction
[1]; [8]
  Floor (log reduction): TNTC
  Wall (log reduction): 3.5 log reduction
[1]; [9]
  Floor (log reduction): 5.2 log reduction
  Wall (log reduction): 5.7 log reduction
[1]; [10]
  Floor (log reduction): 3.4 log reduction
  Wall (log reduction): 5.7 log reduction
[1]; [11]
  Floor (log reduction): 5.7 log reduction
  Wall (log reduction): 5.7 log reduction
[1]; [12]
  Floor (log reduction): 4.4 log reduction
  Wall (log reduction): 5.7 log reduction
[1]; [13]
  Floor (log reduction): 6.1 log reduction
  Wall (log reduction): 5.8 log reduction
[1]; [14]
  Floor (log reduction): 6.1 log reduction
  Wall (log reduction): 6.1 log reduction
[1]; [15]
  Floor (log reduction): 6.1 log reduction
  Wall (log reduction): 6.1 log reduction
[1]; [16]
  Floor (log reduction): 6.1 log reduction
  Wall (log reduction): 4.4 log reduction
[2]; [17]
  Wall (log reduction) Closed carriers: 5.1 log reduction
  Wall (log reduction) Open carriers: 6.3 log reduction
[2]; [18]
  Wall (log reduction) Closed carriers: 6.3 log reduction
  Wall (log reduction) Open carriers: 6.3 log reduction
[2]; [19]
  Wall (log reduction) Closed carriers: 6.3 log reduction
  Wall (log reduction) Open carriers: 6.3 log reduction
[2]; [20]
  Wall (log reduction) Closed carriers: 6.3 log reduction
  Wall (log reduction) Open carriers: 6.3 log reduction
[2]; [21]
  Wall (log reduction) Closed carriers: 6.9 log reduction
  Wall (log reduction) Open carriers: 6.9 log reduction
[2]; [22]
  Wall (log reduction) Closed carriers: 6.9 log reduction
  Wall (log reduction) Open carriers: 6.9 log reduction
[2]; [23]
  Wall (log reduction) Closed carriers: 6.9 log reduction
  Wall (log reduction) Open carriers: 6.9 log reduction
[2]; [24]
  Wall (log reduction) Closed carriers: 6.9 log reduction
  Wall (log reduction) Open carriers: 6.9 log reduction
[2]; [25]
  Floor (log reduction) Closed carriers: 6.1 log reduction
  Floor (log reduction) Open carriers: 6.5 log reduction
  Wall (log reduction) Closed carriers: 5.7 log reduction
  Wall (log reduction) Open carriers: 5.9 log reduction
[2]; [26]
  Floor (log reduction) Closed carriers: 6.6 log reduction
  Floor (log reduction) Open carriers: 6.7 log reduction
  Wall (log reduction) Closed carriers: 6.3 log reduction
  Wall (log reduction) Open carriers: 6.7 log reduction
[2]; [27]
  Floor (log reduction) Closed carriers: 7.5 log reduction
  Floor (log reduction) Open carriers: 7.5 log reduction
  Wall (log reduction) Closed carriers: 7.5 log reduction
  Wall (log reduction) Open carriers: 7.5 log reduction
[2]; [28]
  Floor (log reduction) Closed carriers: 7.5 log reduction
  Floor (log reduction) Open carriers: 7.5 log reduction
  Wall (log reduction) Closed carriers: 6.6 log reduction
  Wall (log reduction) Open carriers: 7.5 log reduction
[3]; closed
  Floor (log reduction): 6.7 log reduction
  Wall (log reduction): 6.7 log reduction
[3]; open
  Floor (log reduction): 6.7 log reduction
  Wall (log reduction): 6.7 log reduction
[4]
  log reductions: greater than 6 log reductions
